Read-outs that look alike come from different tables or passages of the source.
Assays:
[1] = tested on: sciatic nerve entrapment (SNE) neuropathy; assay: SNE neuropathy, mechanical allodynia (von Frey); format: in vivo, rat; settings: 0.3 mg/kg
Method: The effectiveness of CBR agonists was tested for alleviating the painful symptoms of neuropathy induced by unilateral sciatic nerve entrapment (SNE)^131. The peripheral neuropathy induced by SNE is highly comparative to that of chronic constriction injury (CCI), which uses chromic gut suture materials instead of polyethylene cuffs^132. […] This increased excitability is at least in part attributable to injury-induced post-transcriptional transport of the voltage-gated sodium channel 1.8 (NaV1.8) mRNA, axonal accumulation of NaV1.8 mRNA, and its local protein translation leading to the increased NaV1.8 functional expression in injured nerve^136. The hyperexcitability and ectopic burst discharge of primary sensory neurons are widely considered to be the major contributors to pain symptomatology of peripheral neuropathy models. The SNE-induced mechanical allodynia effectively models the most common complaint of human neuropathy patients of dynamic mechanical allodynia. Behavioral measurements of mechanical sensitivity were conducted before and after induction of SNE as follows:
(§1) Rats are placed in a plastic-walled cage (10×20×13 cm) with a metal mesh floor (0.6×0.6 cm holes) and allowed to acclimate for 10 min. The amount of pressure (g) needed to evoke a hindpaw withdrawal response is measured 4 times on each paw separated by 30-s intervals using a von Frey-type digital meter (Model 1601C, IITC Instr.). Results of 4 tests/session are averaged for each paw.

CB1R = CB1R (Homo sapiens, UniProt P21554); assay: CB1R radioligand displacement binding assay (CP55940 radioligand)
Method: Heterologous competition binding assays were performed to calculate receptor affinities. Unlabeled SR141716 or SR144528 were used as appropriate controls for non-specific binding (NSB) in the assay. Calculation of the equilibrium dissociation constant (Ki) was performed using the Cheng-Prusoff equation.

CB2R = CB2R (Homo sapiens, UniProt P34972); assay: CB2R radioligand displacement binding assay (CP55940 radioligand)
Method: Detailed radioligand displacement assays (using the well-characterized CBR agonist […] as the radioligand) were conducted to determine the affinity (Ki) of the test compounds for CB1R and CB2R as has been previously described by our group^112,113. Heterologous competition binding assays were performed to calculate receptor affinities. Unlabeled SR141716 or SR144528 were used as appropriate controls for non-specific binding (NSB) in the assay. Calculation of the equilibrium dissociation constant (Ki) was performed using the Cheng-Prusoff equation.

rats [2] = assay: Rotarod test of the tetrad; format: in vivo, rat; settings: 2-3 hr
Method: Rats were tested for motor function and the ataxic effects of novel drugs as described previously^151-153. To determine drug effects on motor coordination, rats are trained 72 h before the test (3 sessions 24 h apart) to remain for at least 180 s on a rotarod revolving at an acceleration of 4-40 revs over 5 min). Rats are tested immediately before vehicle or drug injections and tested again at 2, 6, 24 and 48 hrs after injection. The time for which the rats are able to remain on the rotarod is recorded up to a cut-off of 5 min.

[3] = tested on: CFA-induced heat hyperalgesia; assay: CFA chronic inflammation, heat hyperalgesia (Hargreaves); format: in vivo, rat; settings: systemic injection
Method: The Hargreaves method was used to assess paw-withdrawal latency to a thermal nociceptive stimulus^175. Rats were acclimated (10 min) within Plexiglas enclosures (10×20×20 cm) on a clear glass plate preheated to 30° C. A radiant heat source (adjustable infrared lamp) and a timer were used to measure paw withdrawal latency (Model 390, IITC Instruments). Each paw was tested 4 times at 30% maximal intensity allowing 5 min between each test. […] Results of 4 tests were averaged for each paw for that session.

rats [4] = assay: Catalepsy (ring) test of the tetrad; format: in vivo, rat; settings: 1-3 hrs
Method: Catalepsy (ring) test. Catalepsy was determined with a ring immobility test^154, modified for rats^139, 153. Rats are placed with their forepaws on a horizontal metal ring (12 cm diameter) at a height that allows their hindpaws to just touch the bench surface. Immobility is recorded as the time for the rat to move off the ring with a 100 s cutoff. Rats are tested before vehicle/drug injections and again at various times after injection.

[5] = tested on: CFA-induced mechanical allodynia; assay: CFA chronic inflammation, mechanical allodynia; format: in vivo, rat; settings: systemic injection
Method: as §1
Compounds were tested in a well-established model of chronic inflammation. In this model, unilateral intraplantar injection of complete Freund's adjuvant (CFA) leads to long-lasting symptoms of mechanical allodynia and thermal hyperalgesia of the affected hindpaw, which is alleviated by local, […] administration of CB1R ligands^125, 155. […] This is consistent with the higher CB1R affinity of our novel compound 13339-145-35 (Compound 9, see Table 1) compared with the AstraZeneca AZ11713908 compound^125.

rats [6] = assay: Tail-flick test of the tetrad; format: in vivo, rat; settings: 0.3 mg/kg, intraperitoneal
Description: A modified Hargreaves apparatus (Model 390, IITC Instr.) is used to measure tail-flick latency (TFL). Radiant heat is directed to a point 3 cm from the tail tip and the TFL observed and timed with a photo cell counter. The intensity of the radiant heat is adjusted for a baseline TFL of approximately 5-7 seconds for naïve rats, with a 25 s cutoff set to avoid tissue damage (see FIG. 3).

rats [7] = assay: Hypothermia test of the tetrad; format: in vivo, rat
Method: Rats are acclimated to a plastic restrainer apparatus (Model RTV-180 Braintree Scientific Inc.) on the day of testing by placing them in the restrainer twice for 5 min separated by 20 min. Baseline core temperature is taken before treatment, and the rectal temperature is measured again at various times after injection of the CB1R ligands.

human CB1R (hCB1R) = human CB1R (hCB1R) (Homo sapiens, UniProt P21554); assay: human CB1R (hCB1R) calcium flux assay; format: cell-based; settings: Table 1; read-out: Ca Flux % Emax
Description: Compounds were first screened for: a) CB1R and CB2R binding, b) CB1R agonist activity using the human CB1R (hCB1R) calcium flux assay, and c) BBB permeability using the Madin-Darby canine kidney (MDCK-MDR1) cell line assay.
The calcium 3 dye assays were run according to manufacturer's specifications (http://www.moleculardevices.com/Products/Assay-Kits/GPCRs/FLIPR-Calcium.html) and as reported in our previous publications^112,113. Briefly, wells of black clear-bottom 96-well tissue culture-treated plates are seeded with 20,000 cells the afternoon before assay. The day of assay, the cells are incubated with the Ca^2+ indicator dye for 1 hr @ 37° C. For antagonist assays, the test compound is preincubated with the cells during the last 10 min of the dye incubation. Basal or unstimulated fluorescence intensity is recorded in the FlexStation @ 37° C. for 13 sec followed by the addition of test compound or CP 55,940 (depending on the assay endpoint). Fluorescence intensity is recorded for an additional 47 sec. The effect of test compound in each well is determined by subtracting the minimum from the maximum fluorescence during the 47-sec recording period.

rats [8] = assay: Tetrad assays overall (CNS-mediated side effects); format: in vivo, rat; settings: doses effective against neuropathy symptoms, i.p.
Description: The CNS-mediated psychotropic actions of CB1R ligands represent their most troubling side effects. The cannabinoid agonists such as Δ9-THC or anandamide produce a complex pattern of behavioral effects which are unique to this class of compounds: at low doses a mixture of stimulatory and depressant effects is observed, while at higher doses central depression predominates^137,138. The tetrad of tests which is classically predictive of cannabinoid receptor activation includes: catalepsy, motor performance, hypothermia, and analgesia tests^139-141. Effects observed in all four tests have been thought to be mediated by the activation of central CBRs, but it is now well established that peripheral CBRs make a major contribution to the analgesic effects of cannabinoids^142-144. The catalepsy and motor deficits induced by CB1R ligands are likely produced by their action on CB1Rs within the basal ganglia and cerebellum, while hypothermia is thought to be mediated mainly through hypothalamic and brainstem CB1Rs^137, 145-150. […] Therefore, “tetrad” tests were used to determine whether the novel CB1R ligands have antinociceptive effects and side-effect profile consistent with the activation of central CB1Rs. […]

Chain of CB1R (P21554 whole entry): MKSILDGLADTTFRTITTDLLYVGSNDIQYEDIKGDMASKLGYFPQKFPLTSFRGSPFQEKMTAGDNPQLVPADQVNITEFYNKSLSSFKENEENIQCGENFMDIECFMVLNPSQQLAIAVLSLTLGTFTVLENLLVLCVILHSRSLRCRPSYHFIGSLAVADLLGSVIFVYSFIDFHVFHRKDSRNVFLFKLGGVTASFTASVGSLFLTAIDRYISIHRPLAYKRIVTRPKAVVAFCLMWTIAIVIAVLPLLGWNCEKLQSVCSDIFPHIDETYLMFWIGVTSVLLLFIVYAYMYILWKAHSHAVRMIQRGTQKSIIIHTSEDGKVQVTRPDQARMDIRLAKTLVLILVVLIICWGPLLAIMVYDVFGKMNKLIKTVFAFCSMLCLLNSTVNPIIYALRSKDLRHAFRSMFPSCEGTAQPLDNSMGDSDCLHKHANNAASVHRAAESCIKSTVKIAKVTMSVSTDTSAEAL
Chain of human CB1R (hCB1R) (P21554 whole entry): as above
Chain of CB2R (P34972 whole entry): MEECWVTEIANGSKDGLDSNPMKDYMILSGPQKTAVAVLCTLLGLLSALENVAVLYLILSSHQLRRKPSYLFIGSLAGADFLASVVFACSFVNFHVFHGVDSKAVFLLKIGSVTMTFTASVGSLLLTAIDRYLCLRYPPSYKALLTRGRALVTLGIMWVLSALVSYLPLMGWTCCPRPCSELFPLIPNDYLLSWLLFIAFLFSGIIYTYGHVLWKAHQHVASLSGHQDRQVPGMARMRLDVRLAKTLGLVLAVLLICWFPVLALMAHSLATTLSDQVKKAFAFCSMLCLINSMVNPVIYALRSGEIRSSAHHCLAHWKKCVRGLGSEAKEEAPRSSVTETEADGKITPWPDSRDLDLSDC

SMILES	effect on SNE-induced mechanical allodynia (ipsilateral hindpaw withdrawal thresholds) ([1]; systemic injection)	SNE Neuropath Assay-% return to pre-drug (0.3 mg/kg) contralateal threshold at 2-3 h ([1]; 2-3 h) [%]	Ki (CB1R) [nM]	Ki (CB1R; Table 1, CP55940 radioligand, read-out: CB1_KI_CP) [nM]	Ki (CB2R) [nM]	Rotarod % change from pre-drug (0.3 mg/kg) at 2-3 hr (rats [2]) [%]	effect on CFA-induced heat hyperalgesia [3]	Catalepsy % change from pre-drug (0.3 mg/kg) at 1-3 hrs (rats [4]) [%]	effect on CFA-induced mechanical allodynia [5]	effect in the tail-flick assay (rats [6])	effect in the hypothermia assay (rats [7]; 0.3 mg/kg, intraperitoneal)	Hypothermia % change from predrug (0.3 mg/kg) at 2-3 hr (rats [7]; 2-3 hr) [%]	Emax (human CB1R (hCB1R)) [%]	CNS side effects in the tetrad assays (rats [8])
COc1ccc(/C=C2\C=C(CCN3CCOCC3)c3ccccc32)c2ccccc12 [Compound 10, 4-{2-[(1E)-2-[(4-methoxy-naphthalen-1-yl)methylidene]-1H-inden-3-yl]ethyl} morpholine]	anti-allodynic effects	103.2	2.4	2.43	4.17	0	robust relief	0	relatively small effect	small, but significant effects	small difference	0	114	–
CCCCCCC(C)(C)c1cc(O)c2c(c1)OC(C)(C)[C@@H]1CC=C(CO)C[C@@H]21 [HU-210]	–	–	–	–	–	–	–	–	–	–	–	–	–	potent CNS side effects

— patent US9656981B2, “Peripherally-acting cannabinoid receptor agonists for chronic pain” (The Regents of the University of California, priority 2012, dated 2017)
